From patent US20230295157A1, “3-(1H-IMIDAZOL-2-YL)-2,3,8,8A-TETRAHYDROINDOLIZIN-5(1H)-ONE DERIVATIVES USEFUL AS FACTOR XIA INHIBITORS” (JANSSEN PHARMACEUTICA NV, priority 2020, published 2023)
Where two headings read alike, the source gives them in different places.

Tests used:
human plasma kallikrein = human plasma kallikrein (Homo sapiens (Human), UniProt P03952); assay: Kallikrein inhibition assay (FLINT) utilizing a quenched AMC peptide substrate; format: biochemical; conditions: 30 min preincubation, kinetic reads over 30 min, Z-Gly-Pro-Arg-AMC substrate 50 μM; read-out: Kallikrein Kin Inh IC50
human plasma kallikrein, sequence (P03952 391-638): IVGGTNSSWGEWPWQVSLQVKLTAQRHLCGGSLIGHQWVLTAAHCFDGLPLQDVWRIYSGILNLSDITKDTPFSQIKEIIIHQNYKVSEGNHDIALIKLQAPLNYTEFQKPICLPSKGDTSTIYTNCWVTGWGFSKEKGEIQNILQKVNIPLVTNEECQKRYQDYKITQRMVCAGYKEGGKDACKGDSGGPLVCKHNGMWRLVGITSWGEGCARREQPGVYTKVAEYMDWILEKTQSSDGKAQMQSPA
human plasma kallikrein, sequence (P03952 20-390 partner): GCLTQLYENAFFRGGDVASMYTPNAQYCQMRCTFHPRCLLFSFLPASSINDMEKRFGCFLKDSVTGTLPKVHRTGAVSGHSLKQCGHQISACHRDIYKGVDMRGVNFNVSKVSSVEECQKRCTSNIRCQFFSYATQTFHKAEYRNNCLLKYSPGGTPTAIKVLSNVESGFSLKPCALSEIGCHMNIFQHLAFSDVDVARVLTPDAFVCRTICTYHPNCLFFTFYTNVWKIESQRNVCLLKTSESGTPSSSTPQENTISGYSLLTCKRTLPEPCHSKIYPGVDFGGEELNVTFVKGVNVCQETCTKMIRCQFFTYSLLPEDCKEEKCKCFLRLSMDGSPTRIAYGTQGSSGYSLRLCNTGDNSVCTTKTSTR
Outline: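 Fluorogenic Z-Gly-Pro-Arg-AMC cleavage (50 μM substrate, 2 nM kallikrein, Tris pH 7.5, CaCl2, BSA, CHAPS, 2% DMSO) read kinetically at 340/440 nm for 30 min after 30-min compound pre-incubation. Compounds in 11-point 3-fold series from 1 μM; percent inhibition fitted to four-parameter equation for IC50.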

Factor XIa = Factor XIa (Homo sapiens (Human), UniProt P03951); assay: Factor XIa inhibition assay (FLINT) utilizing a fluorophore-quencher pair peptide substrate; format: biochemical; conditions: 30 min preincubation, read-out: FXIa Kin Inh IC50
Factor XIa, sequence (P03951 388-625): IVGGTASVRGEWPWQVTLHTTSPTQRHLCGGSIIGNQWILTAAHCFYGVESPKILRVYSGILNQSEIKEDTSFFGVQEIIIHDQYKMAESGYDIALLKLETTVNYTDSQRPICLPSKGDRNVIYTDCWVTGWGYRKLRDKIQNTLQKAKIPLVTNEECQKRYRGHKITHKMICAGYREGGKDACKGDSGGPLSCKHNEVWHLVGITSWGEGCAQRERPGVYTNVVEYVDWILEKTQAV
Factor XIa, sequence (P03951 19-387 partner): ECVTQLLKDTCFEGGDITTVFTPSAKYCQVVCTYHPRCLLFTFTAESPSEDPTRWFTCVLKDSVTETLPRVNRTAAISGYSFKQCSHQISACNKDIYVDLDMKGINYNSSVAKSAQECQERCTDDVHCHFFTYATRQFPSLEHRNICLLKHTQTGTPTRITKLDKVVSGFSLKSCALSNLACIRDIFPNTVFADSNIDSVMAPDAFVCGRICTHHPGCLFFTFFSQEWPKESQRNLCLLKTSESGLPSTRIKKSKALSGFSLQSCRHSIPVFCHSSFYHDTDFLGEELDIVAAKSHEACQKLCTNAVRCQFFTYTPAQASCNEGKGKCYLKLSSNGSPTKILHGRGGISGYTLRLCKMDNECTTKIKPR
Outline: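 FXIa ([…]) preincubated 30 min with compound (11-point 3-fold dilution, top 100 nM, 2% DMSO), then 15 μM quenched FXI Arg146-based peptide added; Tris pH 7.5, CaCl2, BSA, CHAPS. Fluorescence 485/520 nm read kinetically every 5 min over 30 min at RT; IC50 by 4-parameter fit.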

[1] = kinetic reads over 30 min, 5Fam-KLTRAETV-K5Tamra substrate 15 μM
[2] = kinetic reads over 30 min, 5Fam-[…]-K5Tamra substrate 15 μM

| SMILES | IC50 (human plasma kallikrein) [nM] | IC50 (Factor XIa; [1]) [µM] | IC50 (Factor XIa; μM, kinetic reads) [µM] | IC50 (Factor XIa; [2]) [µM] |
| --- | --- | --- | --- | --- |
| C[C@@H](Oc1nccc(-c2cnc([C@@H]3CC[C@@H]4CC(c5c(-n6cnnn6)ccc(Cl)c5F)=CC(=O)N43)[nH]2)c1F)c1ncco1 (single isomer, unassigned) [Example 141, (3*S,8a*R)-7-(3-chloro-2-fluoro-6-(1H-tetrazol-1-yl)phenyl)-3-(5-(3-fluoro-2-((*R)-1-(oxazol-2-yl)ethoxy)pyridin-4-yl)-1H-imidazol-2-yl)-2,3,8,8a-tetrahydroindolizin-5(1H)-one] | 13 | 0.0108 | – | – |
| CC(O)COc1nccc(-c2cnc([C@@H]3CC[C@@H]4CC(c5c(-n6cnnn6)ccc(Cl)c5F)=CC(=O)N43)[nH]2)c1F (single isomer, unassigned) [Example 28] | 9.4 | 0.0013 | – | – |
| COC(=O)Nc1ccc(-c2cnc([C@@H]3CC[C@H]4CC(c5c(F)ccc(Cl)c5OC(F)F)=CC(=O)N43)[nH]2)cc1 (relative stereo) [Example 319, Methyl (4-(2-((3S,8aS)-7-(3-Chloro-2-(difluoromethoxy)-6-fluorophenyl)-5-oxo-1,2,3,5,8,8a-hexahydroindolizin-3-yl)-1H-imidazol-5-yl)phenyl)carbamate] | 455 | – | 2.2 | – |
| CC1(C)C[C@@H](c2ncc(-c3ccc(N)nc3F)[nH]2)N2C(=O)C=C(c3c(-n4cnnn4)ccc(Cl)c3F)C[C@H]21 (relative stereo) [Example 337, (3S,8aS)-3-(5-(6-Amino-2-fluoropyridin-3-yl)-1H-imidazol-2-yl)-7-(3-chloro-2-fluoro-6-(1H-tetrazol-1-yl)phenyl)-1,1-dimethyl-2,3,8,8a-tetrahydroindolizin-5(1H)-one] | 12.7 | – | – | 0.0015 |
| O=C1C=C(c2c(-n3cnnn3)ccc(Cl)c2F)CC2CC[C@@H](c3nc(F)c(-c4ccnc(N[C@H]5CCOC5)c4F)[nH]3)N12 (relative stereo) [Example 76, (3S*)-7-(3-chloro-2-fluoro-6-(1H-tetrazol-1-yl)phenyl)-3-(4-fluoro-5-(3-fluoro-2-(((S)-tetrahydrofuran-3-yl)amino)pyridin-4-yl)-1H-imidazol-2-yl)-2,3,8,8a-tetrahydroindolizin-5(1H)-one] | 1.9 | – | – | 0.0007 |
| O=C1C=C(c2c(-n3cnnn3)ccc(Cl)c2F)C[C@H]2CC[C@@H](c3nc(Cl)c(-c4ccnc([C@@H](O)C(F)(F)F)c4)[nH]3)N12 [Example 173, (3S,8aR)-7-(3-chloro-2-fluoro-6-(1H-tetrazol-1-yl)phenyl)-3-(4-chloro-5-(2-((R)-2,2,2-trifluoro-1-hydroxyethyl)pyridin-4-yl)-1H-imidazol-2-yl)-2,3,8,8a-tetrahydroindolizin-5(1H)-one] | 7 | 0.0017 | – | – |
| NC(=O)c1ccc(-c2c[nH]c([C@@H]3CC[C@H]4CC(c5c(-n6cc(C(F)(F)F)nn6)ccc(Cl)c5F)=CC(=O)N43)n2)s1 (single isomer, unassigned) [Example 221] | 7.7 | 0.0023 | – | – |
| [2H]C([2H])([2H])C(=O)Nc1cnc(C(F)(F)F)cc1-c1cnc([C@@H]2CC[C@@H]3CC(c4c(-n5cnnn5)ccc(Cl)c4F)=CC(=O)N32)[nH]1 [Example 243, N-[4-[2-[(3S,8aR)-7-[3-Chloro-2-fluoro-6-(tetrazol-1-yl)phenyl]-5-oxo-2,3,8,8a-tetrahydro-1H-indolizin-3-yl]-1H-imidazol-5-yl]-6-(trifluoromethyl)-3-pyridyl]-2,2,2-trideuterio-acetamide] | 653 | – | – | 0.052 |
| [2H]c1nc([C@H]2CC[C@]3([2H])CC(c4c(-n5cnnn5)ccc(Cl)c4F)=CC(=O)N23)[nH]c1-c1c(F)nc(N)c([2H])c1[2H] (single isomer, unassigned) [Example 131, (3R*,8aR*)-3-(5-(6-amino-2-fluoropyridin-3-yl-4,5-d2)-1H-imidazol-2-yl-4-d)-7-(3-chloro-2-fluoro-6-(1H-tetrazol-1-yl)phenyl)-2,3,8,8a-tetrahydroindolizin-5(1H)-one-8a-d] | 11.7 | – | – | 0.0009 |
| CNc1ccc(-c2cnc([C@@H]3CC[C@@H]4CC(c5cc(Cl)ccc5-n5cnnn5)=CC(=O)N43)[nH]2)c(F)n1 (single isomer, unassigned) [Example 98, (3S*,8aR)-7-(5-chloro-2-(1H-tetrazol-1-yl)phenyl)-3-(5-(2-fluoro-6-(methylamino)pyridin-3-yl)-1H-imidazol-2-yl)-2,3,8,8a-tetrahydroindolizin-5(1H)-one] | 9 | – | – | 0.0006 |

Continued, values first:

| IC50 (human plasma kallikrein) [nM] | IC50 (Factor XIa; [1]) [µM] | IC50 (Factor XIa; μM, kinetic reads) [µM] | IC50 (Factor XIa; [2]) [µM] | SMILES |
| --- | --- | --- | --- | --- |
| 1.3 | 0.0005 | – | – | CC(C)C(=O)Nc1ccccc1-c1c[nH]c([C@@H]2CCC3CC(c4c(-n5cnnn5)ccc(Cl)c4F)=CC(=O)N32)n1 (stereo partly drawn) [Example 329, N-(2-(2-((3S)-7-(3-Chloro-2-fluoro-6-(1H-tetrazol-1-yl)phenyl)-5-oxo-1,2,3,5,8,8a-hexahydroindolizin-3-yl)-1H-imidazol-4-yl)phenyl)isobutyramide] |
| 7.8 | 0.0027 | – | – | O=C1C=C(c2c(-n3cnnn3)ccc(Cl)c2F)C[C@H]2CC[C@@H](c3ncc(-c4ccnc(C(F)(F)F)c4)[nH]3)N12 [Example 351, (3S,8aR)-7-(3-Chloro-2-fluoro-6-(1H-tetrazol-1-yl)phenyl)-3-(5-(2-(trifluoromethyl)pyridin-4-yl)-1H-imidazol-2-yl)-2,3,8,8a-tetrahydroindolizin-5(1H)-one] |
| 4.4 | 0.0038 | – | – | O=C1C=C(c2c(-n3cnnn3)ccc(Cl)c2F)C[C@H]2CC[C@@H](c3nc(-c4cccc5[nH]ncc45)c[nH]3)N12 [Example 51, (3S,8aR)-3-(4-(1H-indazol-4-yl)-1H-imidazol-2-yl)-7-(3-chloro-2-fluoro-6-(1H-tetrazol-1-yl)phenyl)-2,3,8,8a-tetrahydroindolizin-5(1H)-one] |
| 7.7 | – | – | 0.0046 | O=C1C=C(c2c(-n3cnnn3)ccc(Cl)c2F)C[C@H]2CC[C@H](c3ncc(-c4c[nH]c5ccccc45)[nH]3)N12 (relative stereo) [Example 137, (3R*,8aR)-3-(5-(1H-indol-3-yl)-1H-imidazol-2-yl)-7-(3-chloro-2-fluoro-6-(1H-tetrazol-1-yl)phenyl)-2,3,8,8a-tetrahydroindolizin-5(1H)-one] |
| 4.6 | 0.001 | – | – | O=C1C=C(c2c(-n3cnnn3)ccc(Cl)c2F)C[C@H]2CC[C@@H](c3nc(-c4ccc5[nH]cnc5c4)c[nH]3)N12 [Example 42, (3S,8aR)-3-(4 (1H-benzo[d]imidazol-5-yl)-1H-imidazol-2-yl)-7-(3-chloro-2-fluoro-6-(1H-tetrazol-1-yl)phenyl)-2,3,8,8a-tetrahydroindolizin-5(1H)-one] |
| 33.9 | 0.0065 | – | – | C[C@@H](O)c1nccc(-c2cnc([C@@H]3CC[C@@H]4CC(c5c(-n6cnnn6)ccc(Cl)c5F)=CC(=O)N43)[nH]2)c1F [Example 185, (3S,8aR)-7-(3-chloro-2-fluoro-6-(1H-tetrazol-1-yl)phenyl)-3-(5-(3-fluoro-2-((R)-1-hydroxyethyl)pyridin-4-yl)-1H-imidazol-2-yl)-2,3,8,8a-tetrahydroindolizin-5(1H)-one] |
| 30.5 | 0.0114 | – | – | CC(=O)N[C@H](C)c1ccc(-c2[nH]c([C@@H]3CCC4CC(c5c(-n6cnnn6)ccc(Cl)c5F)=CC(=O)N43)nc2F)cc1 (stereo partly drawn) [Example 11, N-[(1R)-1-[4-[2-[(3S)-7-[3-Chloro-2-fluoro-6-(tetrazol-1-yl)phenyl]-5-oxo-2,3,8,8a-tetrahydro-1H-indolizin-3-yl]-4-fluoro-1H imidazol-5-yl]phenyl]ethyl]acetamide] |
